Key:
Fms = Fms (Homo sapiens, UniProt P07333); experiment: Kinase activity assay, Fms
C-Raf = C-Raf (Homo sapiens, UniProt P04049); experiment: Kinase activity assay, C-Raf
B-Raf V600E = B-Raf V600E (Homo sapiens, UniProt P15056, V600E); experiment: Kinase activity assay, B-Raf V600E; type: biochemical; conditions: read-out: activity toward kinase B-Raf V600E, IC50
A-Raf = target: T1, A-Raf (Homo sapiens, UniProt P10398); experiment: Kinase activity assay, A-Raf
T1 sequence (P10398 1-606): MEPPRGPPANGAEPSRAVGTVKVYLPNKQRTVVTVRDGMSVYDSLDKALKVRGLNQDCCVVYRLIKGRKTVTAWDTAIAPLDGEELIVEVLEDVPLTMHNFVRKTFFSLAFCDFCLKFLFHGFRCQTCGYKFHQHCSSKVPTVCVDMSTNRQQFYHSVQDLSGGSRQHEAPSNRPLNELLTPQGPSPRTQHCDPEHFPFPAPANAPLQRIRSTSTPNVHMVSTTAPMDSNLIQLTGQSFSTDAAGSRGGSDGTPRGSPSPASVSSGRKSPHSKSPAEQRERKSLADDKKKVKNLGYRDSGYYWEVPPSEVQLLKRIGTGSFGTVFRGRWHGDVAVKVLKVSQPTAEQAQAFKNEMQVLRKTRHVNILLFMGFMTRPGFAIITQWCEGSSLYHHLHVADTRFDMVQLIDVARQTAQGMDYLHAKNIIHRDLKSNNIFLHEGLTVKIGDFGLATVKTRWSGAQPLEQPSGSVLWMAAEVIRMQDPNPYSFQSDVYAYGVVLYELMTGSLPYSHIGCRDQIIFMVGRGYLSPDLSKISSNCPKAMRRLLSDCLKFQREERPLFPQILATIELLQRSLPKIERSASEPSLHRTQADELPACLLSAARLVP

MAP4K4 = MAP4K4 (Homo sapiens, UniProt O95819); experiment: Kinase activity assay, MAP4K4
B-Raf = B-Raf (Homo sapiens, UniProt P15056); experiment: Kinase activity assay, B-Raf; type: biochemical; conditions: read-out: activity toward kinase B-Raf, IC50
Kdr = Kdr (Homo sapiens, UniProt P35968); experiment: Kinase activity assay, Kdr
Src = Src (Homo sapiens, UniProt P12931); experiment: Kinase activity assay, Src
Kit = Kit (Homo sapiens, UniProt P10721); experiment: Kinase activity assay, Kit

Measured: IC50

Chain of Fms (P07333 20-972): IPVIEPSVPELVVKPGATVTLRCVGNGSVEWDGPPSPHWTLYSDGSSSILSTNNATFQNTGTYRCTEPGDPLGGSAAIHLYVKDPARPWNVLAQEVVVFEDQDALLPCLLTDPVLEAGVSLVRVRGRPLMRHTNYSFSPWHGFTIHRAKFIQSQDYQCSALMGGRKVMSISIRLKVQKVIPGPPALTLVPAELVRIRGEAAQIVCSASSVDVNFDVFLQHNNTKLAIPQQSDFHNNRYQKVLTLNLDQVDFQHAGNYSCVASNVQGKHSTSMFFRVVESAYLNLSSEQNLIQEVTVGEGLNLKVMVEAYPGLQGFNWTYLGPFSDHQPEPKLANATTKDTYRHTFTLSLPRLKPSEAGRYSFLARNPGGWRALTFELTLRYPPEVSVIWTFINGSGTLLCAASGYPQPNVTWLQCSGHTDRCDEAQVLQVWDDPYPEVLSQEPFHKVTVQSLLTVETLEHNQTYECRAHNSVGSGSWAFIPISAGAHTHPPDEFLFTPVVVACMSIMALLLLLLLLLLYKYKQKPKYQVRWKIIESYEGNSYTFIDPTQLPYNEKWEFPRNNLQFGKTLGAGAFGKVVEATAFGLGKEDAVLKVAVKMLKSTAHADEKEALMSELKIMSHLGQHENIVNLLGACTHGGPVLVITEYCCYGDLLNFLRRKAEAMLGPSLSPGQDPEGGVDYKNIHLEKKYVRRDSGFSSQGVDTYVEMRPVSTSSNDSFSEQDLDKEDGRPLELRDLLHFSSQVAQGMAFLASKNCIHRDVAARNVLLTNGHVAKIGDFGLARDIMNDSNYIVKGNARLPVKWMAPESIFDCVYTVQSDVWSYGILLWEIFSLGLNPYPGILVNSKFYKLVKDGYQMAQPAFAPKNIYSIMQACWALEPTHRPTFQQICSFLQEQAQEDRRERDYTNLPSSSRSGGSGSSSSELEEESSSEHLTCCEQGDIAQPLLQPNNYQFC
Chain of Kit (P10721 26-976): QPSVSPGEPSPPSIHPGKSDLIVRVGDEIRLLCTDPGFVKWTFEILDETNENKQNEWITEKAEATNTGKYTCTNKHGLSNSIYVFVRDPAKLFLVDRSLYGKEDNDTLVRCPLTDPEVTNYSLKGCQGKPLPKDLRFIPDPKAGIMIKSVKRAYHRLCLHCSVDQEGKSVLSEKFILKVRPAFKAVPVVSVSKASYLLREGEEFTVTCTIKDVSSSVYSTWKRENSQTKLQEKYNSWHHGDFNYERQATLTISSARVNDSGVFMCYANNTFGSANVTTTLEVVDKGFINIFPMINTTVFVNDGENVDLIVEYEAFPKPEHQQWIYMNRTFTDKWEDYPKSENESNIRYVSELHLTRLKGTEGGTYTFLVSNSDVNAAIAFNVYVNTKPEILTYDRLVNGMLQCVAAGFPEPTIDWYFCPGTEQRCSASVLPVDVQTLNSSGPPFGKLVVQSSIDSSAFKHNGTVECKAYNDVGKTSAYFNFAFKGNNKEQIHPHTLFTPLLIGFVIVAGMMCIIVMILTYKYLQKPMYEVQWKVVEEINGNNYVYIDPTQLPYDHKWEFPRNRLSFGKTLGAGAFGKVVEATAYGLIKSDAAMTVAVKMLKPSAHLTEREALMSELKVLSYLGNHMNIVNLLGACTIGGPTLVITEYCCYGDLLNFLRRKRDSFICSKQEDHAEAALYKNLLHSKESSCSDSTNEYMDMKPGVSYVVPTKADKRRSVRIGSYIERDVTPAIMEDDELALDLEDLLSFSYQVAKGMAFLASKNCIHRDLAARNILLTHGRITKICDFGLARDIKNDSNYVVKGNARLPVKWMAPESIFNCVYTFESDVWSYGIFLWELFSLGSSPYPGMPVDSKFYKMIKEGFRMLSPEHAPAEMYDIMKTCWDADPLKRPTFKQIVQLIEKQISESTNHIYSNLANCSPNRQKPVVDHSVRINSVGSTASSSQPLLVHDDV
Chain of B-Raf V600E (P15056 whole entry V600E): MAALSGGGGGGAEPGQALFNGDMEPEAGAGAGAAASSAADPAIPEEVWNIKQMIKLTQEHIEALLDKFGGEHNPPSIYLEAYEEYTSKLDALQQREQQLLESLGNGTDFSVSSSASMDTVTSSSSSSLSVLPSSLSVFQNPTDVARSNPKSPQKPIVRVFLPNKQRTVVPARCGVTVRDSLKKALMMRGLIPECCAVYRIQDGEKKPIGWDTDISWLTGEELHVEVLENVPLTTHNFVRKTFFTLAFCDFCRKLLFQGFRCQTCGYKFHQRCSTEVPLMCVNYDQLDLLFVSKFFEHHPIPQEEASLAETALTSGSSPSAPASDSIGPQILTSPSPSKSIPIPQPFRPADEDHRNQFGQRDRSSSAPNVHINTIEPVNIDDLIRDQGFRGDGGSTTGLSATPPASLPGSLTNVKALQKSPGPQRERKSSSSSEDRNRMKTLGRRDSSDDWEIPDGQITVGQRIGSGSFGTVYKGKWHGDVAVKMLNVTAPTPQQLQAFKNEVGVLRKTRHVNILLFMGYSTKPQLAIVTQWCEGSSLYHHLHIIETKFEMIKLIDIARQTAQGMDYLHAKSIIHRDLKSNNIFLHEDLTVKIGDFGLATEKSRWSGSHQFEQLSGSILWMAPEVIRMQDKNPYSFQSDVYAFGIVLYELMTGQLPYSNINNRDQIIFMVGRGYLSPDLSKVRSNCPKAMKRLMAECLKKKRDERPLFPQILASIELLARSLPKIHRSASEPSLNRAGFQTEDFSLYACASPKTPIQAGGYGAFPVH
Chain of MAP4K4 (O95819 whole entry): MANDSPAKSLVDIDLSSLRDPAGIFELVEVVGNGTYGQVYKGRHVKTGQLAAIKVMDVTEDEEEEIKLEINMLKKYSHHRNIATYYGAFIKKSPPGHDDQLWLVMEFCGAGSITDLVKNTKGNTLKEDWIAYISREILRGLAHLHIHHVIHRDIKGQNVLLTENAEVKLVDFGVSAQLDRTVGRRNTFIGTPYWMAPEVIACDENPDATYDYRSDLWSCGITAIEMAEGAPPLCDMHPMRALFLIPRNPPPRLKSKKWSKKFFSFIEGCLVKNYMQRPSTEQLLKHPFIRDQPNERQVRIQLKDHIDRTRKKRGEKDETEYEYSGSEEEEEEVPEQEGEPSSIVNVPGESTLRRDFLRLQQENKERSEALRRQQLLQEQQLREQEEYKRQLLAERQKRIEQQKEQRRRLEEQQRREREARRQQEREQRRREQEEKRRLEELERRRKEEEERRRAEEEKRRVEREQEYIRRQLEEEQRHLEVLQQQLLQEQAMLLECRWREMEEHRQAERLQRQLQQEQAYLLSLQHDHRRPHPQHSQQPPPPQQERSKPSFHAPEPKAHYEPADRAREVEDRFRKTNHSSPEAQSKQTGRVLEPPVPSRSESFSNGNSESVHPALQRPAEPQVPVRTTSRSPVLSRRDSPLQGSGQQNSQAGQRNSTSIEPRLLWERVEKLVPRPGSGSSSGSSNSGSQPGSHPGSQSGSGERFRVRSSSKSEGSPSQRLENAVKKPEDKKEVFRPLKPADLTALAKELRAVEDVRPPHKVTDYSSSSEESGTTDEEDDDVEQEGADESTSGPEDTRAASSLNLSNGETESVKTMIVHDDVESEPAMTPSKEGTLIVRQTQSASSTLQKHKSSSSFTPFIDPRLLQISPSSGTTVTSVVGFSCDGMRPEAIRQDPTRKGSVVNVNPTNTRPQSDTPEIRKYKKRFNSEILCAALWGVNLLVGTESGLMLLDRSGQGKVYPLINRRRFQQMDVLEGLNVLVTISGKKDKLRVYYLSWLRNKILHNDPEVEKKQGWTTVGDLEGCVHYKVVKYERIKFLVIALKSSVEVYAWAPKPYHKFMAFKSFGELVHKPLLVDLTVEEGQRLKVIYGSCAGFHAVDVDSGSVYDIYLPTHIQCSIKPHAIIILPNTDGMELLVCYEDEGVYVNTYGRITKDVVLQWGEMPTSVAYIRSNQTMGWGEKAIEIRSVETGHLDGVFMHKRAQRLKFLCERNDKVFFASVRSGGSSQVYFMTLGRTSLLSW
Chain of B-Raf (P15056 whole entry): as the sequence (P15056 whole entry V600E) above, with E600V counted along it
Chain of Src (P12931 whole entry): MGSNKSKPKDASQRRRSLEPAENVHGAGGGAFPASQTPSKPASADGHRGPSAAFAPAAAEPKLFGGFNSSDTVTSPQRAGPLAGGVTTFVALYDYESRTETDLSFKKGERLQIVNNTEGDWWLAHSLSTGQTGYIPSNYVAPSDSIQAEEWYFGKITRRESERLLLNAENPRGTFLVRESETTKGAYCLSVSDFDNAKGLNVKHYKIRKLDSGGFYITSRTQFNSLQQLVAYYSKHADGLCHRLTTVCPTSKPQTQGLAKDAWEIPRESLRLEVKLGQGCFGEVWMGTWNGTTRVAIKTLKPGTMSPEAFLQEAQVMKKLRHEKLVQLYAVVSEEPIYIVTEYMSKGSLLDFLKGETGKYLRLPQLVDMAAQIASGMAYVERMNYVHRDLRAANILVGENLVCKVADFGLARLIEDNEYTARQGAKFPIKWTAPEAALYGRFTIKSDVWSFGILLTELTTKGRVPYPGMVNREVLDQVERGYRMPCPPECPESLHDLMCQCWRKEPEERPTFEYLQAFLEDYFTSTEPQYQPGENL

O=C(c1c(F)ccc(NS(=O)(=O)c2cc(F)ccc2F)c1F)c1c[nH]c2ncc(Cl)cc12 [P-2002, N-[3-(5-Chloro-1H-pyrrolo[2,3-b]pyridine-3-carbonyl)-2,4-difluoro-phenyl]-2,5-difluoro-benzenesulfonamide]
≤ 10 µM: all assays above

COc1cnc2[nH]cc(C(=O)c3c(F)ccc(NS(=O)(=O)c4cc(F)ccc4F)c3F)c2c1 [P-2010, N-[2,4-Difluoro-3-(5-methoxy-1H-pyrrolo[2,3-b]pyridine-3-carbonyl)-phenyl]-2,5-difluoro-benzenesulfonamide]
≤ 10 µM: all assays above

Cc1cnc2[nH]cc(C(=O)c3c(F)ccc(NS(=O)(=O)c4cc(F)ccc4F)c3F)c2c1 [P-2015, N-[2,4-Difluoro-3-(5-methyl-1H-pyrrolo[2,3-b]pyridine-3-carbonyl)-phenyl]-2,5-difluoro-benzenesulfonamide]
≤ 10 µM: all assays above

O=C(c1c(F)ccc(NS(=O)(=O)c2ccccc2F)c1F)c1c[nH]c2nccc(Cl)c12 [P-2017, N-[3-(4-Chloro-1H-pyrrolo[2,3-b]pyridine-3-carbonyl)-2,4-difluoro-phenyl]-2-fluoro-benzenesulfonamide]
≤ 10 µM: all assays above

O=C(c1c(F)ccc(NS(=O)(=O)c2cc(F)ccc2F)c1F)c1c[nH]c2nccc(Cl)c12 [P-2018, N-[3-(4-Chloro-1H-pyrrolo[2,3-b]pyridine-3-carbonyl)-2,4-difluoro-phenyl]-2,5-difluoro-benzenesulfonamide]
≤ 10 µM: all assays above

CCCc1ccc(-c2cnc3[nH]cc(C(=O)c4c(F)ccc(NS(=O)(=O)CCC)c4F)c3c2)cn1 [P-2224, Propane-1-sulfonic acid {2,4-difluoro-3-[5-(6-propyl-pyridin-3-yl)-1H-pyrrolo[2,3-b]pyridine-3-carbonyl]-phenyl}-amide]
≤ 10 µM: all assays above

CCCS(=O)(=O)Nc1ccc(F)c(C(=O)c2c[nH]c3ncc(CCC(=O)OC)cc23)c1F [P-2230, 3-{3-[2,6-Difluoro-3-(propane-1-sulfonylamino)-benzoyl]-1H-pyrrolo[2,3-b]pyridin-5-yl}-propionic acid methyl ester]
≤ 10 µM: all assays above

CCCS(=O)(=O)Nc1ccc(F)c(C(=O)c2c[nH]c3ncc(-c4ccc(OCCN5CCOCC5)nc4)cc23)c1F [P-2232, Propane-1-sulfonic acid (2,4-difluoro-3-{5-[6-(2-morpholin-4-yl-ethoxy)-pyridin-3-yl]-1H-pyrrolo[2,3-b]pyridine-3-carbonyl}-phenyl)-amide]
≤ 10 µM: all assays above

CCCS(=O)(=O)Nc1ccc(F)c(C(=O)c2c[nH]c3ncc(-c4ccc(OCCN5CCCC5)nc4)cc23)c1F [P-2233, Propane-1-sulfonic acid (2,4-difluoro-3-{5-[6-(2-pyrrolidin-1-yl-ethoxy)-pyridin-3-yl]-1H-pyrrolo[2,3-b]pyridine-3-carbonyl}-phenyl)-amide]
≤ 10 µM: all assays above

CCCS(=O)(=O)Nc1ccc(F)c(C(=O)c2c[nH]c3ncc(-c4ccc(OCCCN5CCOCC5)nc4)cc23)c1F [P-2236, Propane-1-sulfonic acid (2,4-difluoro-3-{5-[6-(3-morpholin-4-yl-propoxy)-pyridin-3-yl]-1H-pyrrolo[2,3-b]pyridine-3-carbonyl}-phenyl)-amide]
≤ 10 µM: all assays above

Cc1cnc2[nH]cc(C(=O)c3c(F)ccc(NS(=O)(=O)CCC(F)(F)F)c3F)c2c1 [P-2328, 3,3,3-Trifluoro-propane-1-sulfonic acid [2,4-difluoro-3-(5-methyl-1H-pyrrolo[2,3-b]pyridine-3-carbonyl)-phenyl]-amide]
not listed: Fms
≤ 10 µM: all other assays above

O=C(c1c(F)ccc(NS(=O)(=O)CCC(F)(F)F)c1F)c1c[nH]c2nccc(Cl)c12 [P-2329, 3,3,3-Trifluoro-propane-1-sulfonic acid [3-(4-chloro-1H-pyrrolo[2,3-b]pyridine-3-carbonyl)-2,4-difluoro-phenyl]-amide]
not listed: Fms
≤ 10 µM: all other assays above

COc1cnc2[nH]cc(C(=O)c3c(F)ccc(NS(=O)(=O)CC(F)(F)F)c3F)c2c1 [P-2335, 2,2,2-Trifluoro-ethanesulfonic acid [2,4-difluoro-3-(5-methoxy-1H-pyrrolo[2,3-b]pyridine-3-carbonyl)-phenyl]-amide]
not listed: Fms
≤ 10 µM: all other assays above

O=C(c1c(F)ccc(NS(=O)(=O)CC(F)(F)F)c1F)c1c[nH]c2nccc(Cl)c12 [P-2338, 2,2,2-Trifluoro-ethanesulfonic acid [3-(4-chloro-1H-pyrrolo[2,3-b]pyridine-3-carbonyl)-2,4-difluoro-phenyl]-amide]
not listed: Fms
≤ 10 µM: all other assays above

O=C(c1c(F)ccc(NS(=O)(=O)CC(F)(F)F)c1F)c1c[nH]c2ncc(Cl)cc12 [P-2339, 2,2,2-Trifluoro-ethanesulfonic acid [3-(5-chloro-1H-pyrrolo[2,3-b]pyridine-3-carbonyl)-2,4-difluoro-phenyl]-amide]
not listed: Kit
≤ 10 µM: all other assays above

COc1cnc2[nH]cc(C(=O)c3c(F)ccc(NS(=O)(=O)C(F)(F)F)c3F)c2c1 [P-2347, N-[2,4-Difluoro-3-(5-methoxy-1H-pyrrolo[2,3-b]pyridine-3-carbonyl)-phenyl]-C,C,C-trifluoro-methanesulfonamide]
not listed: Fms
≤ 10 µM: all other assays above

O=C(c1c(F)ccc(NS(=O)(=O)N2CCCC2)c1F)c1c[nH]c2ncc(Cl)cc12 [P-2375, Pyrrolidine-1-sulfonic acid [3-(5-chloro-1H-pyrrolo[2,3-b]pyridine-3-carbonyl)-2,4-difluoro-phenyl]-amide]
not listed: Fms
≤ 10 µM: all other assays above

Reference: patent US20120122860A1, “SOLID FORMS OF SULFONAMIDES AND AMINO ACIDS” (Plexxikon, Inc., priority 2009, published 2012)
